For data set [1] the following is noted: IAM column, cited from earlier work.
Data set [2] has as its system human cancer cells. Also noted: method as in ref [3-7,9-15,17-21] (a number printed in a supplementary file, which may have a reference list of its own: not looked up in the article's list). The conditions noted are these: supplement ref [3-7,9-15,17-21]; cited from earlier work.
On the set-up of data set [3]: method as in ref [14] (a number printed in a supplementary file, which may have a reference list of its own: not looked up in the article's list). The settings on record: supplement ref [14]; cited from earlier work.
In data set [4] the test system is human cancer cells. Also noted: method as in ref [3,9,10,13,18-21] (a number printed in a supplementary file, which may have a reference list of its own: not looked up in the article's list). The conditions noted are these: supplement ref [3,9,10,13,18-21]; cited from earlier work.
In data set [5] the test system is zebrafish embryos and larvae. Also noted: method as in ref [18,20] (a number printed in a supplementary file, which may have a reference list of its own: not looked up in the article's list). The settings on record: versus anticancer agent pemetrexed; supplement ref [18,20]; cited from earlier work.
Data set [6] is described as follows: Biomimetic IAM chromatography (log kw, IAM). The data set is classed as physicochemical. The settings on record: IAM.PC.DD2 column, buffered acetonitrile, pH 7.4, 25 °C, extrapolated to buffer. The protocol:
High performance liquid chromatography (HPLC) measurements were performed on a Shimadzu Vp liquid chromatographic system (Shimadzu, Izabelin, Poland). This instrument was equipped with LC 10AT pump, SPD 10A ultraviolet-visible detector, SCL 10A system controller, CTO-10 AS chromatographic oven, and a Rheodyne injector valve with a 20 μL loop. As the stationary phase Regis IAM.PC.DD2 column, 100 × 4.6 mm i.d., 10 μm (Morton Grove, IL, USA) was applied.
Buffered acetonitrile mixtures were used as effluents. Acetonitrile concentration, expressed as a volume fraction, was varied within a range from 0.2 to 0.5, with a constant step of 0.1. The buffer was prepared from 0.01 mol L^−1 solutions of Na2HPO4 and citric acid, and a pH value of 7.4 was fixed before mixing with an organic modifier. The flow rate was 1.3 mL min^−1. Each compound sample was dissolved in acetonitrile to obtain a concentration of 0.005 mg mL^−1, and each solute peak was detected under ultraviolet light at a wavelength of λmax = 254 nm. Each measurement was performed at a constant temperature (25 °C) at least three times. The dead time values were measured from sodium chloride peaks.
From among 126 heterocyclic compounds evaluated in this work (Table 1), 89 structures have been investigated previously on the IAM column: these are molecules from groups III, IV, V, VI, VII, VIII, IX, XI, XIII, and XV [21, 22, 23]. The remaining ones, i.e., 37 compounds from groups I, II, X, XII and XIV, were tested in this study for the first time using the biomimetic IAM chromatographic technique. To calculate the log kw values (i.e., the logarithms of retention parameter in the buffer as the mobile phase), the retention parameters, logs k (k = (tr − t0)/t0; where tr is the solute retention time, and t0 is a dead time), that were measured for all tested compounds, were used according to Soczewiński-Wachtmeister’s equation (Equation (5)): (5) log k=logtr−t0/t0=log kw−sφ where φ denotes the volume fraction of acetonitrile as organic modifier in the mobile phase, and kw means the retention parameter corresponding to buffer as the mobile phase. The log kw values were evaluated as linear regression coefficients (Table 2).

The test system of data set [7] is bacteria. Also noted: method as in ref [3] (a number printed in a supplementary file, which may have a reference list of its own: not looked up in the article's list). The conditions noted are these: supplement ref [3], cited from earlier work.
In data set [8] the test system is Pseudomonas aeruginosa. Also noted: method as in ref [3] (a number printed in a supplementary file, which may have a reference list of its own: not looked up in the article's list). The settings on record: versus chloramphenicol and ampicillin; supplement ref [3]; cited from earlier work.
The test system of data set [9] is central nervous system of mice. On the set-up: method as in PMID 24157086. The settings on record: preliminary tests, ref [21]; cited from earlier work.
On the set-up of data set [10]: method as in ref [8,16] (a number printed in a supplementary file, which may have a reference list of its own: not looked up in the article's list). The conditions noted are these: supplement ref [8,16]; cited from earlier work.
The test system of data set [11] is oxidatively-stressed erythrocytes. The conditions noted are these: supplement ref [4,19,26,30]; cited from earlier work.
Data set [12] deals with Staphylococcus aureus ATCC 25923. Also noted: method as in ref [3] (a number printed in a supplementary file, which may have a reference list of its own: not looked up in the article's list). The conditions noted are these: versus ampicillin; supplement ref [3]; cited from earlier work.
Details of data set [13]: method as in ref [21,22] (a number printed in a supplementary file, which may have a reference list of its own: not looked up in the article's list). The settings on record: supplement ref [21,22]; cited from earlier work.
Data set [14] has as its system hepatic adenosine A2A receptors. On the set-up: method as in ref [22] (a number printed in a supplementary file, which may have a reference list of its own: not looked up in the article's list). The settings on record: antagonizes stimulatory effect of a selective A2A receptor agonist; supplement ref [22]; cited from earlier work.
On the set-up of data set [15]: method as in ref [22] (a number printed in a supplementary file, which may have a reference list of its own: not looked up in the article's list). The settings on record: supplement ref [22]; cited from earlier work.
On the set-up of data set [16]: method as in ref [19] (a number printed in a supplementary file, which may have a reference list of its own: not looked up in the article's list). The conditions noted are these: supplement ref [19]; cited from earlier work.

Read-outs that look alike come from different tables or passages of the source.

Take `COc1ccc(N2CCn3c2nnc(-c2ccccc2)c3=O)cc1` [Compound 86]: the “log kw, IAM” value in data set [1] (ref [23]) is 1.71. For the same compound, the antitumor activity result in data set [2] is recorded as “antitumor”. Moreover, the antimetastatic activity entry in [3] is “antimetastatic”.

On to `Cc1ccccc1N1CCn2c1nnc(C(F)(F)F)c2=O` [Compound 16], for which the “log kw, IAM” value in [1] (ref [22]) is 0.76. Besides, in data set [4], the “mechanism of antiproliferative action: promoting apoptotic caspases” value is “promoting apoptotic caspases”. In data set [5], the “toxicity for zebrafish embryos and larvae compared with pemetrexed” value is “lower”.

`Clc1ccc(OCc2nnc3n2CCN3c2ccc(Cl)c(Cl)c2)c(Cl)c1` [Compound 13]: in data set [6], the “log kw, IAM” value is on record as 2.91. Besides, in [7] (Gram-negative strains), the “selectivity of antibacterial activity” value was “selective activity on Gram-negative strains of bacteria”. Moreover, the antibacterial activity result in [7] is given as “antibacterial”. Besides, the “antibacterial potency against Pseudomonas aeruginosa ATCC 25923” value in data set [8] is “superior”.

As to `O=c1c(-c2ccccc2)nnc2n1CCN2c1ccccc1Cl` [Compound 89], the “log kw, IAM” value in data set [1] (ref [23]) is 1.73. For the same compound, in [9], the analgesic activity entry is “analgesic activity” and the toxicity result is on record as “low toxicity”. Also, in data set [10], the analgesic activity entry was “analgesic”. Further, the antihemolytic activity result in [11] was “antihemolytic”.

Turning to `O=c1c(-c2ccccc2)nnc2n1CCN2c1ccc(Cl)c(Cl)c1` [Compound 92], the “log kw, IAM” value in [1] (ref [23]) is recorded as 3.26. The analgesic activity entry in data set [10] was “analgesic”. Also, the antihemolytic activity result in data set [11] is listed as “antihemolytic”.

With `Cc1ccc(N2CCn3c(COc4ccc(Cl)cc4C)nnc32)cc1` [Compound 9], the “log kw, IAM” value in data set [6] is given as 1.95. Further, the antibacterial activity result in [7] was “antibacterial”. For the same compound, the “antibacterial activity against Staphylococcus aureus ATCC 25923” value in data set [12] is given as “comparable”.

For `COc1ccc(N2CCn3c2nnc(C(=O)NN)c3=O)cc1` [Compound 53], in data set [1] (ref [21]), the “log kw, IAM” value was −0.10. In data set [10], the analgesic activity result is reported as “analgesic”. Also, the antiradical activity result in data set [13] is reported as “antiradical”. Besides, the “action towards hepatic adenosine A2A receptors” value in data set [14] was “antagonistic”. The “scavenging of the superoxide anion radical” value in [15] is “able to scavenge”.

On to `COc1ccc(N2CCn3c2nnc(CC(=O)NN)c3=O)cc1` [Compound 58], for which, in data set [6], the “log kw, IAM” value is −0.27. In addition, the antiradical activity result in data set [13] is recorded as “antiradical”.

Turning to `O=c1c(C(F)(F)F)nnc2n1CCN2c1ccccc1` [Compound 15], in data set [1] (ref [22]), the “log kw, IAM” value was 0.94. Moreover, the “toxicity for zebrafish embryos and larvae compared with pemetrexed” value in [5] is on record as “lower”.

Regarding `CCc1nnc2n(c1=O)CCN2c1ccc(Cl)c(Cl)c1` [Compound 28], the “log kw, IAM” value in data set [1] (ref [23]) was 1.85. Moreover, the antiviral activity result in data set [16] was “antiviral”.

Consider `Cc1cccc(N2CCn3c2nnc(-c2ccccc2)c3=O)c1` [Compound 83], for which the “log kw, IAM” value in data set [1] (ref [23]) is reported as 2.26. For the same compound, in [9], the analgesic activity entry is given as “analgesic activity” and the toxicity entry is listed as “low toxicity”. Moreover, the antimetastatic activity result in data set [3] is on record as “antimetastatic”. Further, the analgesic activity result in data set [10] is “analgesic”. For the same compound, the antihemolytic activity entry in [11] is reported as “antihemolytic”.

Source of the values: article PMC11154582, “Modeling the Blood-Brain Barrier Permeability of Potential Heterocyclic Drugs via Biomimetic IAM Chromatography Technique Combined with QSAR Methodology” (Molecules, 2024).
